Source: patent US20250082630A1, “METHODS OF TREATING BRAIN TUMOURS AND NEUROBLASTOMAS” (AstraZeneca AB, priority 2021, published 2025)
pIC50: −log10 of the molar value. Like-named read-outs stand apart in the source and are kept apart here.

Columns and labels:
[1] = target: PARP1 (Homo sapiens (Human), UniProt P09874); test: PARP fluorescence anisotropy binding assay, PARP1
Protocol: Recombinant full length 6HIS tagged PARP1 protein was diluted to 6 nM with 50 mM Tris pH 8, 0.001% Triton X100, 10 mM MgCl2, 150 mM NaCl and incubated for four hours with an equivalent volume of 2 nM fluorescent probe diluted with 50 mM Tris pH 8, 0.001% Triton X100, 10 mM MgCl2, 150 mM NaCl. The final DMSO concentration of the probe was kept below 1% (v/v).
(§2) Fluorescence anisotropy of the probe when bound to the proteins was measured using a BMG Pherastar FSX® in the presence of test compounds or solvent control and the effect on anisotropy determined. % inhibition values for different test compound concentrations were calculated and fitted to a four parameter logistic plot in order to determine the IC50 value. Where necessary, the compound K, can be determined from the IC50 value using a Munson Rodbard equation defined in Anal Biochem. 1980 Sep.

[2] = target: PARP2 (Homo sapiens (Human), UniProt Q9UGN5); test: PARP fluorescence anisotropy binding assay, PARP2
Protocol: Recombinant full length PARP2 protein was diluted to 6 nM with 50 mM Tris pH 8, 0.001% Triton X100, 10 mM MgCl2, 150 mM NaCl and incubated for four hours with an equivalent volume of 2 nM fluorescent probe diluted with 50 mM Tris pH 8, 0.001% Triton X100, 10 mM MgCl2, 150 mM NaCl. The final DMSO concentration of the probe was kept below 1% (v/v).
(§1) Fluorescence anisotropy of the probe when bound to the proteins was measured using a BMG Pherastar FSX® in the presence of test compounds or solvent control and the effect on anisotropy determined. % inhibition values for different test compound concentrations were calculated and fitted to a four parameter logistic plot in order to determine the IC50 value.

[3] = target: PARP3 (Homo sapiens (Human), UniProt Q9Y6F1); test: PARP fluorescence anisotropy binding assay, PARP3
Protocol: Recombinant full length PARP3 protein was diluted to 100 nM with 50 mM Tris pH 8, 0.001% Triton X100, 10 mM MgCl2, 150 mM NaCl and incubated for four hours with an equivalent volume of 6 nM fluorescent probe diluted with 50 mM Tris pH 8, 0.001% Triton X100, 10 mM MgCl2, 150 mM NaCl. The final DMSO concentration of the probe was kept below 1% (v/v).

[4] = target: PARP5a (Homo sapiens (Human), UniProt O95271); test: PARP fluorescence anisotropy binding assay, PARP5a
Protocol: Recombinant PARP5a binding domain was diluted to 160 nM with 50 mM Tris pH 8, 0.001% Triton X100, 10 mM MgCl2, 150 mM NaCl and incubated for four hours with an equivalent volume of 6 nM fluorescent probe diluted with 50 mM Tris pH 8, 0.001% Triton X100, 10 mM MgCl2, 150 mM NaCl. The final DMSO concentration of the probe was kept below 1% (v/v).
as §2

[5] = target: PARP6 (Homo sapiens (Human), UniProt Q2NL67); test: PARP fluorescence anisotropy binding assay, PARP6
Protocol: Recombinant full length GST tagged PARP6 protein was diluted to 160 nM with 50 mM Tris pH 8, 0.001% Triton X100, 10 mM MgCl2, 150 mM NaCl and incubated for four hours with an equivalent volume of 6 nM fluorescent probe diluted with 50 mM Tris pH 8, 0.001% Triton X100, 10 mM MgCI2, 150 mM NaCl. The final DMSO concentration of the probe was kept below 1% (v/v).
as §1, with “value. Where necessary, the compound K, can be determined from the IC50 value using a Munson Rodbard equation defined in Anal Biochem. 1980 Sep. 1; 107(1):220-39 and is based on the known KD of the probe binding to the relevant PARP protein” for “value.”

[6] = Determination of Kpuu in rat; type: in vivo, Han Wistar rats; settings: intravenous infusion; for Kp uu at 4 h: Han Wistar, rat, brain and plasma (unbound brain-to-plasma ratio), 2 µmols/kg/h; for Rat Kpuu: 4 h, brain/plasma unbound
Protocol: The fraction unbound was determined using the RED Device.
Compounds were prepared as 10 mM solutions in DMSO. […] If less than 9 test compounds were included then the addition volume of blank DMSO was added to make up volume to 40 uL.
Frozen plasma was thawed in a water bath at 37° C. Plasma was then centrifuged for 2 minutes at 4,000 rpm to remove clots and collect supernatant into a fresh tube. The pH of the plasma was checked and only used if within the range of pH 7 to pH 8. 3 μL of the working solution of each cassette was added to 597 μL of blank plasma and vortexed for 5 minutes at 1000 rpm. The final percent volume of organic solvent is 0.5% and the final concentration for test compound was 5 μM. Immediately transfer 50 μL of the spiked plasma suspension to a 96-well plate to act as T=0 control sample. The samples are treated the same as the samples after incubation. The remaining plasma is kept at 37° C. prior to starting the dialysis.
Place inserts open end up into the wells of the base plate. Add 300 μL of spiked plasma sample into the sample chamber, indicated by the red ring. Add 500 μL of phosphate buffer (pH 7.4) to the buffer chamber. Cover the unit with gas permeable lid and incubate for 18 hours at 37° C. at 300 rpm with 5% CO2 on an orbital shaker in the CO2 incubator. At the end of incubation, remove lid and pipette 50 μL of post-dialysis samples from both buffer and plasma chambers into separated 96-well plate for analysis, respectively.
Samples were matrix matched by adding 50 μL of blank rat plasma to the buffer samples and an equal volume of PBS to the collected plasma samples and vortexed to mix. 400 μL of acetonitrile containing an appropriate internal standard (IS) was added to precipitate protein and release compound and mixed by vortexing the plate for 10 minutes followed by centrifugation for 30 minutes at 4,000 rpm. 250 μL of the supernatant was transferred to new 96-well plates and centrifuged again (4,000 rpm, 30 minutes). 100 μL of the supernatant was then transferred to new 96-well plates and mixed with 100 μL of distilled water to each sample by vortex for 5 minutes at 1,000 rpm. Samples were analysed by LC-MS/MS and drug concentrations were determined vs a calibration curve produced from spiked blank plasma with a typical range of 1-7500 nM.
The % unbound was determined as % Unbound=(Conc. buffer chamber/Conc. plasma chamber)×100%. Fraction unbound=% unbound/100.
The principle for the method for the determination of volume unbound in brain slices has previously been published (Development of a High-Throughput Brain Slice Method for Studying Drug Distribution in the Central Nervous System; Fridén et al; Drug Metabolism and Disposition, 2009, 37 (6) 1226-1233). In brief:
Compound stock solutions were prepared in DMSO at the concentration of 10 mM. […] If less than 9 test compounds were included, then blank DMSO was added to make up volume to 40 uL. On the day of the experiment 4 ul was diluted in 40 mL ECF buffer to give a 100 nM solution of each test compounds which was then pre-warmed to 37° C. before the start of the incubation.
To prepare brain slices, rats weighing approximately 300 g were terminally anesthetised with isoflurane by inhalation, the brain carefully removed and immersed in ice-cold oxygenated ECF buffer. The rat brain was transferred to a dish containing ice-cold, 02 supplied ECF buffer and trimmed with razor before gluing to the tray of a microslicer with the brain placed with the back section surface down centrally on the tray. Ice cold ECF buffer was added to harden the glue and wet the brain. The tray was placed in the microslicer and using a suitable cutting speed, 100-400 μm were cut slices until the striatum area appeared. Four to six for each brain, 300 μm thick, coronal slices of striatum areas were cut and placed in ice cold 02 supplied buffer until incubation. Six slices were transferred to the incubation tray containing 40 mL pre warmed (37° C.) cassette mixture. […]

[7] = test system: MDR1 and BCRP; test: In vitro human transporter efflux (MDCK-MDR1-BCRP); settings: human, pH 7.4
Protocol: MDCKII cells expressing MDR1 and BCRP were seeded onto polyethylene membranes in 96-well Transwell insert systems at a density to form a confluent cell monolayer. […] The final percent volume of the organic solvent was less than 1%. Permeation of the test compounds from A to B direction and from B to A direction was determined over a 90-min incubation at 37° C. and 5% CO2 with a relative humidity of 95%. At the end of the incubation, samples from the apical and basolateral side were taken and then precipitated with cold acetonitrile containing internal standard. After centrifugation at 4000 rpm, the supernatant was diluted with 0.1% formic acid aqueous solution and quantified by LC-MS/MS. The integrity of the cell monolayers was confirmed by using the marker Lucifer yellow.
The permeability coefficient (1×10-6 cm/s) was calculated using the following equation
(1) The Efflux Ratio was Calculated Using the Following Equation
Efflux ratio=Papp(B to A)/Papp(A to B)
(2) where dCr/dt is the cumulative concentration of the compound in the receiver chamber as a function of time (in μM/s); Vr is the solution volume in the receiver chamber (0.1 ml on the apical side and 0.3 ml on the basolateral side); A is the surface area for the transport, that is, 0.11 cm2 for the area of the monolayer; and C0 is the initial concentration in the donor chamber (in μM).

[8] = target: hERG (Homo sapiens (Human), UniProt Q12809); test: hERG IC50
[9] = test system: BRCA2 (−/−) DLD1 cells; test: PARP proliferation assay (7 day compound dosing), BRCA2 (−/−) DLD1; type: cell-based; settings: Homo sapiens, DLD-1, 168 h, read-out: BRCA2 −/− DLD-1 prolif. 7 d IC50
Protocol: DLD1 and BRCA2 (−/−) DLD1 cells were harvested to a density of 5000 cells/ml and 2.5E4 cells/ml respectively in complete media, 40 μL/well seeded into 384-well plates (Greiner, Kremsmunster, Austria; 781090) using a Multidrop Combi then incubated at 37° C., 5% CO2 overnight. Next day (Day 1) using a Multidrop Combi add sytox green (5ul, 2 uM) and saponin (10 ul, 0.25% stock) to a day 0 plate, seal the plate using a black adhesive lid and incubate for >3 h at it. Cells were imaged using Cell Insight (Thermo Fisher) fitted with a 4x objective. Test compounds are added using an Echo 555 and placed in incubator maintained at 37° C., 5% CO2 and incubated for 7 days. On Day 8 add sytox green (5ul, 2 uM) and then saponin (10 ul, 0.25% stock) to plates, seal the plate using a black adhesive lid and incubate for >3 h at it. Read all cells on the Cell Insight with 4× Objective. The rate of proliferation is determined in Genedata by assessing the total cell number output from the Cell Insight for Day 0 and Day 8 plates.

[10] = test system: U87MG xenograft; type: in vivo, female Nude mice
Protocol: U87MG cells (2.5 million in serum-free MEM medium) were implanted subcutaneously (SC) into the dorsal flank of female Nude mice (weight greater than 18 g). Tumours were measured (length x width) two times weekly by bilateral Vernier calliper measurements and tumour volume was calculated using elliptical formula (π/6×width×width×length). Animal bodyweight and tumour condition were monitored throughout the study. Mice were randomised into treatment groups when mean tumour volume reached approximately 0.2 cm^3.
Animals were treated orally (PO) from the day after the randomisation. Control animals were treated with vehicle (water/methane sulfonic acid (MSA) pH3-3.2) once daily for 10 days (QD×10). PARP inhibitor in water/MSA pH3-3.2 was dosed in the monotherapy and combination groups at 3 mg/kg QD×10 or QD×33, respectively. Temozolomide (TMZ) in OraPlus Perrigo was dosed in the monotherapy group at 25 mg/kg QD on days 1-5 and 29-33, and in monotherapy and combination group at 6.25 mg/kg QD on days 1-5 and 29-33.
Tumour growth inhibition from start of treatment was assessed by comparison of the mean change in tumour volume (TV) of the control and treated groups and represented as percent tumour growth inhibition (TGI, when tumour volume (TV) >starting TV) or tumour regression (reg, when TV<starting TV). Statistical significance was evaluated using a one-tailed t test. Statistical significance is indicated as follows: *p:0.05, **p:0.01, ***p:0.001.

[11] = TMZ 6.25 mg/kg QD on days 1-5 and 29-33, PO
[12] = TMZ 25 mg/kg QD on days 1-5 and 29-33, PO

PARP5a, sequence (O95271 1112-1317): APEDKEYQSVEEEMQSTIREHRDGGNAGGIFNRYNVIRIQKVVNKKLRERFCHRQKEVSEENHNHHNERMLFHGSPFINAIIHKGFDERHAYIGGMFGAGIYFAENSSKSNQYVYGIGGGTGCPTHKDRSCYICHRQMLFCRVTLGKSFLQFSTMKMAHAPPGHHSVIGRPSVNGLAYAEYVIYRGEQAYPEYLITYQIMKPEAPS
PARP6, sequence (Q2NL67 whole entry): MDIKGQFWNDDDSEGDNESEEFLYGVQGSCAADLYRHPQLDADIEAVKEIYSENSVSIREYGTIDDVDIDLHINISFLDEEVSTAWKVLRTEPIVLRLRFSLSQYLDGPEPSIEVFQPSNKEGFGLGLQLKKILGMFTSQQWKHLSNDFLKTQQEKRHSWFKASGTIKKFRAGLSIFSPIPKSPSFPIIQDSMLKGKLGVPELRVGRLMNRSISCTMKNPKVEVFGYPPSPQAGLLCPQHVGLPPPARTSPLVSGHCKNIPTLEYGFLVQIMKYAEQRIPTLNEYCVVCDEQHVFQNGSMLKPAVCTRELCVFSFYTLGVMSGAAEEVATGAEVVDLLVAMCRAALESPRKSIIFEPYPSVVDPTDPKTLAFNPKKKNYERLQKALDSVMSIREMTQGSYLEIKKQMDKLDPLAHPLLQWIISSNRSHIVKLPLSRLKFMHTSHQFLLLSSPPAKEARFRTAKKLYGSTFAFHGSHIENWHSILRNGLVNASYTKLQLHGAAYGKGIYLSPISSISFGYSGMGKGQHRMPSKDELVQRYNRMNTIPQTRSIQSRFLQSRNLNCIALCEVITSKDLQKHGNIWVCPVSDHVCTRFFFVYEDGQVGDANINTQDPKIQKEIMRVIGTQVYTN
PARP2, sequence (Q9UGN5 whole entry): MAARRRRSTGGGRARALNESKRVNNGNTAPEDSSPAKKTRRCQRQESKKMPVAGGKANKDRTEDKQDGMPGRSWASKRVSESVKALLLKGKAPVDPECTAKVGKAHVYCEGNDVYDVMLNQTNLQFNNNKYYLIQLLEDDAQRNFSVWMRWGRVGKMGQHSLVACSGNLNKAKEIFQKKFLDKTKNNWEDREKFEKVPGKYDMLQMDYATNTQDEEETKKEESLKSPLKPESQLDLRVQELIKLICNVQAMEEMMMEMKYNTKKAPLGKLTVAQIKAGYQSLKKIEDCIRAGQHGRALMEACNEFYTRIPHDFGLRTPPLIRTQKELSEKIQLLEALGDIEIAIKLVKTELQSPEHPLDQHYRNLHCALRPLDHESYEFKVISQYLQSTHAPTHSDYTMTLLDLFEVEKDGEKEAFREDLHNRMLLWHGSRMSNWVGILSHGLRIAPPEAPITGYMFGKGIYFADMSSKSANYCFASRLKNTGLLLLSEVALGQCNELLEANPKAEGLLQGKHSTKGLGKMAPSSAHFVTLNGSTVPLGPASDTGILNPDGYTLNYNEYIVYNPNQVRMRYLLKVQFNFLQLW
PARP1, sequence (P09874 whole entry): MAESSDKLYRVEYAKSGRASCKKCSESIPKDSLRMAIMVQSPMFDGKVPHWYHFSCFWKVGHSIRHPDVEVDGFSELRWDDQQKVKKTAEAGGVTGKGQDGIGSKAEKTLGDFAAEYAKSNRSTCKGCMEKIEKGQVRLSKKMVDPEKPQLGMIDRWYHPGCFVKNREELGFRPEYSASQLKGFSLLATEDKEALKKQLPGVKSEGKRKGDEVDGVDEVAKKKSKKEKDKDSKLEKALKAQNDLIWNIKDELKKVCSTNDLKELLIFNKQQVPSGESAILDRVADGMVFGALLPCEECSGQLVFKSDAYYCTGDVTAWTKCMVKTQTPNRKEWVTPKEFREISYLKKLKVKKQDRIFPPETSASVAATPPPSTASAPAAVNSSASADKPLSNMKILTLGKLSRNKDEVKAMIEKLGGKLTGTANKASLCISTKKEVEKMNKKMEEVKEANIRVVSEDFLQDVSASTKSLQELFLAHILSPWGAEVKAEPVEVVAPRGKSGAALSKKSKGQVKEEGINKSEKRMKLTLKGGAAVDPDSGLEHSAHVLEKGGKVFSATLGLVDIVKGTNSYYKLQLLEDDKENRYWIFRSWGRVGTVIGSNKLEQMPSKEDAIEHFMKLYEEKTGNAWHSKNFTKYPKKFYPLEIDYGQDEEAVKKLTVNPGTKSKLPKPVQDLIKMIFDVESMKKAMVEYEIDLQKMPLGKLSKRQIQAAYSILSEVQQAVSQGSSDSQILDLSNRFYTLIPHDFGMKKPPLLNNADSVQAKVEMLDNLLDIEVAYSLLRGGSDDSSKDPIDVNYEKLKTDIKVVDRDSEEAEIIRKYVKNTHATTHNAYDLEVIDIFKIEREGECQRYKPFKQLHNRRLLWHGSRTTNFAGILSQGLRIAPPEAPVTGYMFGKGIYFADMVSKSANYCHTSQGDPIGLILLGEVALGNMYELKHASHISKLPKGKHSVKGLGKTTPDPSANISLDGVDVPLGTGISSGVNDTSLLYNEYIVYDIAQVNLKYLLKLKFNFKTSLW
PARP3, sequence (Q9Y6F1 whole entry): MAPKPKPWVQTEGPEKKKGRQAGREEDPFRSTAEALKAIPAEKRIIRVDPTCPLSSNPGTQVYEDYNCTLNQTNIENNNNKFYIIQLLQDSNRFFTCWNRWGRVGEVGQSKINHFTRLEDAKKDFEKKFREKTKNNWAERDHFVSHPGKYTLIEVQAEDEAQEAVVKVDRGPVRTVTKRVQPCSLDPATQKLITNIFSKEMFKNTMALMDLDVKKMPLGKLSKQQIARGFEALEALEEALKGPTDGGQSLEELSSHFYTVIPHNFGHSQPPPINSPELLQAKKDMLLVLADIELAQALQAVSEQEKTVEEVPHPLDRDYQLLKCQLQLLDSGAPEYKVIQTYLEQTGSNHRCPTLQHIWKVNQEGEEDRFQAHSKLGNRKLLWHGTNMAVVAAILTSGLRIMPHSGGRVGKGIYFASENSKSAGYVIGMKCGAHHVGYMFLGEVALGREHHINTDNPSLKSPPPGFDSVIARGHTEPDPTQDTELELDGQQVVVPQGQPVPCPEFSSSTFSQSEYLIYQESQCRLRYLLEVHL
hERG, sequence (Q12809 whole entry): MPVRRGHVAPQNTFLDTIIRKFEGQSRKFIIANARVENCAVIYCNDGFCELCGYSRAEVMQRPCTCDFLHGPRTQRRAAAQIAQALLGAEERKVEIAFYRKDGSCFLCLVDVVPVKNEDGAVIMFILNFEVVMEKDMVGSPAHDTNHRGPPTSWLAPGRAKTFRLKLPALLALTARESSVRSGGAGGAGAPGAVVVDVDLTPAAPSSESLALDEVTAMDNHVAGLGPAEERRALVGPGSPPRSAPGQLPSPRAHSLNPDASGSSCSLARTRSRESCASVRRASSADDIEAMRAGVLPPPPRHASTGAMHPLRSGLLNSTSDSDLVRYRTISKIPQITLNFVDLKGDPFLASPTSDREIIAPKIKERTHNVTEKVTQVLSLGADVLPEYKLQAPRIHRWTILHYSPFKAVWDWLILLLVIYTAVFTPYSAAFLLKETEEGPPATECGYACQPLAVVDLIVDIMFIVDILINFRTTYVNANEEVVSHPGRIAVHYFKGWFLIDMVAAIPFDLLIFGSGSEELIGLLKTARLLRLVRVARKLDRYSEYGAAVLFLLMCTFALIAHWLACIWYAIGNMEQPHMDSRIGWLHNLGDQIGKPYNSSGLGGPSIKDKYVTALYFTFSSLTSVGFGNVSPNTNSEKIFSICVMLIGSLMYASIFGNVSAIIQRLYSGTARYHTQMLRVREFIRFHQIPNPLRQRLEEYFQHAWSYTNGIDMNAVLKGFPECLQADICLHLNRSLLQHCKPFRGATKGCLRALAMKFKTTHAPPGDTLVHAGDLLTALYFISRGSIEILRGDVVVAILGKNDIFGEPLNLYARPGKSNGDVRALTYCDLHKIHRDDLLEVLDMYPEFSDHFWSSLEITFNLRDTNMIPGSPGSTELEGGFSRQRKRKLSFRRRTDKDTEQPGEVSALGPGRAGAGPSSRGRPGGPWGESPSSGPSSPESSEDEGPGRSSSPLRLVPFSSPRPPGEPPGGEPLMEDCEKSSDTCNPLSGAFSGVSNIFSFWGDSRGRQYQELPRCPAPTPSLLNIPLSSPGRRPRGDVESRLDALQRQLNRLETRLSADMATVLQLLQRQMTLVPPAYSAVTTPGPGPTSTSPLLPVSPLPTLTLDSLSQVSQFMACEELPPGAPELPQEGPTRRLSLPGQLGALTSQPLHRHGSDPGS

**Q.** With CNC(=O)c1ccc(N2CCN(Cc3ccc4nc(C)c(=O)[nH]c4c3C)CC2)c(F)n1 [Example 1, 5-[4-[(2,5-dimethyl-3-oxo-4H-quinoxalin-6-yl)methyl]piperazin-1-yl]-6-fluoro-N-methyl-pyridine-2-carboxamide] as the compound, how does the pIC50 [1] read?
**A.** 8.40

**Q.** And the pIC50 [2]?
**A.** < 4.15

**Q.** What about the pIC50 [3] of the same compound?
**A.** < 4.00

**Q.** What about the pIC50 [4] of the same compound?
**A.** < 4.00

**Q.** What about the pIC50 [5] of the same compound?
**A.** < 4.00

**Q.** And the Kp uu at 4 h [6]?
**A.** 0.07

**Q.** What about the efflux ratio at 90 min [7] of the same compound?
**A.** 0.7

**Q.** With CNC(=O)c1ccc(N2CCN(Cc3ccc4nc(C)c(=O)[nH]c4c3C)CC2)c(C)n1 [Example 4, 5-[4-[(2,5-dimethyl-3-oxo-4H-quinoxalin-6-yl)methyl]piperazin-1-yl]-N,6-dimethyl-pyridine-2-carboxamide] as the compound, how does the pIC50 [1] read?
**A.** 8.30

**Q.** And the pIC50 [2]?
**A.** < 4.08

**Q.** What about the pIC50 [3] of the same compound?
**A.** 4.11

**Q.** And the pIC50 [4]?
**A.** < 4.00

**Q.** What about the pIC50 [5] of the same compound?
**A.** < 4.00

**Q.** And the Kp uu at 4 h [6]?
**A.** 0.13

**Q.** What about the efflux ratio at 90 min [7] of the same compound?
**A.** 0.8

**Q.** With CNC(=O)c1ccc(N2CCN(Cc3ccc4nc(C)c(=O)[nH]c4c3Cl)CC2)c(C)n1 [Example 18, 5-[4-[(5-chloro-2-methyl-3-oxo-4H-quinoxalin-6-yl)methyl]piperazin-1-yl]-N,6-dimethyl-pyridine-2-carboxamide] as the compound, how does the pIC50 [1] read?
**A.** 8.30

**Q.** What about the pIC50 [8] of the same compound?
**A.** 4.85

**Q.** With CCc1nc2ccc(CN3CCN(c4ccc(C(=O)NC)nc4C)CC3)c(F)c2[nH]c1=O [Example 23, 5-[4-[(2-ethyl-5-fluoro-3-oxo-4H-quinoxalin-6-yl)methyl]piperazin-1-yl]-N,6-dimethyl-pyridine-2-carboxamide] as the compound, how does the pIC50 [1] read?
**A.** 8.30

**Q.** And the pIC50 [2]?
**A.** < 4.17

**Q.** And the pIC50 [3]?
**A.** < 4.00

**Q.** And the pIC50 [4]?
**A.** < 4.00

**Q.** What about the pIC50 [5] of the same compound?
**A.** < 4.00

**Q.** What about the Kp uu at 4 h [6] of the same compound?
**A.** 0.62

**Q.** What about the efflux ratio at 90 min [7] of the same compound?
**A.** 0.8

**Q.** With CCc1nc2ccc(CN3CCN(c4ccc(C(=O)NC)nc4F)CC3)c(F)c2[nH]c1=O [Example 27, 5-[4-[(2-ethyl-5-fluoro-3-oxo-4H-quinoxalin-6-yl)methyl]piperazin-1-yl]-6-fluoro-N-methyl-pyridine-2-carboxamide] as the compound, how does the pIC50 [3] read?
**A.** < 4.00

**Q.** And the pIC50 [4]?
**A.** < 4.00

**Q.** What about the pIC50 [5] of the same compound?
**A.** < 4.00

**Q.** What about the “Rat Kpuu” value [6] of the same compound?
**A.** 0.43

**Q.** With CCc1nc2ccc(CN3CCN(c4ccc(C(=O)NC)nc4)CC3)c(F)c2[nH]c1=O [Example 29, 5-[4-[(2-ethyl-5-fluoro-3-oxo-4H-quinoxalin-6-yl)methyl]piperazin-1-yl]-N-methyl-pyridine-2-carboxamide] as the compound, how does the pIC50 [1] read?
**A.** 7.82

**Q.** What about the pIC50 [2] of the same compound?
**A.** < 4.00

**Q.** And the pIC50 [3]?
**A.** < 4.00

**Q.** What about the pIC50 [4] of the same compound?
**A.** < 4.00

**Q.** And the pIC50 [5]?
**A.** < 4.00

**Q.** What about the Kp uu at 4 h [6] of the same compound?
**A.** 0.33

**Q.** What about the efflux ratio at 90 min [7] of the same compound?
**A.** 0.7

**Q.** With CNC(=O)c1ccc(N2CCN(Cc3ccc4nc(C)c(=O)[nH]c4c3F)CC2)c(C)n1 [Example 31, 5-[4-[(5-fluoro-2-methyl-3-oxo-4H-quinoxalin-6-yl)methyl]piperazin-1-yl]-N,6-dimethyl-pyridine-2-carboxamide] as the compound, how does the pIC50 [1] read?
**A.** 8.15

**Q.** And the pIC50 [2]?
**A.** < 4.00

**Q.** What about the pIC50 [3] of the same compound?
**A.** < 4.00

**Q.** And the pIC50 [4]?
**A.** < 4.00

**Q.** And the pIC50 [5]?
**A.** < 4.00

**Q.** What about the pIC50 [9] of the same compound?
**A.** 8.15

**Q.** What about the “Rat Kpuu” value [6] of the same compound?
**A.** 0.19

**Q.** And the efflux ratio at 90 min [7]?
**A.** 1.6

**Q.** With CNC(=O)c1ccc(N2CCN(Cc3ccc4ncc(=O)[nH]c4c3F)CC2)c(Cl)n1 [Example 34, 6-chloro-5-[4-[(5-fluoro-3-oxo-4H-quinoxalin-6-yl)methyl]piperazin-1-yl]-N-methyl-pyridine-2-carboxamide] as the compound, how does the pIC50 [1] read?
**A.** 7.59

**Q.** What about the pIC50 [2] of the same compound?
**A.** < 4.00

**Q.** What about the pIC50 [8] of the same compound?
**A.** 4.54

**Q.** Which results are given for Cn1nnc2c(C(N)=O)ncn2c1=O [TMZ, Temozolomide]?
**A.** tumour regression [10, 11]: 28%; tumours regressed [10, 11]: 2/8; tumour regression [10, 12]: 92%; tumours regressed [10, 12]: 7/8
